The text below walks through data of ChEMBL document CHEMBL1201862, “PubChem BioAssay data set” (2004).

As a reminder, the IC50 is the midpoint of a concentration-inhibition curve. By EC50 is commonly meant the concentration that produces a half-maximal response. Usually AC50 stands for the concentration giving half of the maximal activity seen. As usually defined, the CC50 is the concentration that lowers cell viability or growth by half.

Assay [1] concerns the target Arf-GAP with SH3 domain, ANK repeat and PH domain-containing protein 1 (Homo sapiens, UniProt Q9ULH1). It is filed as functional.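 Further: biochemical fluorescence polarization dose–response screen measuring inhibition of ASAP1; ASAP1 GAP domain stimulating GTP hydrolysis by truncated human ARF1.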
The next assay concerns H9c2. Nature of the assay: cells. The assay is classed as functional, cell-based. The note with it: Rattus norvegicus, H9c2, Myocardium.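 Further: confirmatory concentration-response retest of ultra-high-throughput screening hits for modulation of myocardial damage; cell death induced by hydrogen peroxide oxidative stress; compound pretreatment for 60 min then peroxide exposure for 2 h; potency is for protecting the cells against peroxide damage rather than for killing them.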
In the next assay the target is T1, Protein RecA (Mycobacterium tuberculosis, UniProt P9WHJ3).
T1 sequence (P9WHJ3 whole entry): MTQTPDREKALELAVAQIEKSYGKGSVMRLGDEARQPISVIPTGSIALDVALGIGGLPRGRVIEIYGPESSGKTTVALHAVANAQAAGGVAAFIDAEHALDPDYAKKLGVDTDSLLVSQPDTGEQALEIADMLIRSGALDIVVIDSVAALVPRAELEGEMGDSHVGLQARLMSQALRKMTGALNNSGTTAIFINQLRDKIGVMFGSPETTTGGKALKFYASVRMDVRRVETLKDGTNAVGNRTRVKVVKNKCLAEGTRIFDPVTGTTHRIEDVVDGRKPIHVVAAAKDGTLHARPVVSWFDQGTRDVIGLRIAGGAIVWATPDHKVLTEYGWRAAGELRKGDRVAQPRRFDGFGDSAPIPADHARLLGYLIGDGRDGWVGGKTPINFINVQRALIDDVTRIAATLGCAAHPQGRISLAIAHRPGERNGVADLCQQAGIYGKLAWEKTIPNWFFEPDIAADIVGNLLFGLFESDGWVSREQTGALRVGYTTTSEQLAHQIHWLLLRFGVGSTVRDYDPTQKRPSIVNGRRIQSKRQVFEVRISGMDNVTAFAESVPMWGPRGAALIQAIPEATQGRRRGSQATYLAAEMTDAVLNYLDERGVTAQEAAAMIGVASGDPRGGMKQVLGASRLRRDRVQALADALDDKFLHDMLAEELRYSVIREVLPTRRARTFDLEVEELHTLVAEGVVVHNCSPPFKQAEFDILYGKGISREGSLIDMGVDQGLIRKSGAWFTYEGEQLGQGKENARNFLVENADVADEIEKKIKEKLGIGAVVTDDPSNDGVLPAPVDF
Kind of assay: Fluorescence Cell-Free Homogeneous Dose Retest to Identify Inhibitors of RecA-Intein Splicing Activity. [Related pubchem assays (depositor defined):AID2097, AID2223, AID489010, AID492950]. The assay is classed as functional.

Assay [2] in a line: HepG2 cell cytotoxicity, dose response, cytotoxicity control for Shn3 inhibitor project, CellTiter-Glo, cherry-picked (AID 624134). It is filed as functional, cell-based.
The target of another assay is Beta Lactamase (Pseudomonas aeruginosa, UniProt Q932Y6). Kind of assay: beta-lactamase reporter inhibitor potency, dose response, artefact control for NOD2-RIPK2 interaction inhibitor project, BLA reporter cells, FRET fluorescence (AID 651552). The assay is classed as functional, cell-based.
A short description of assay [3]: THP-1 cell cytotoxicity, dose response, cytotoxicity control for non-replicating M. tuberculosis project (AID 489025). It is filed as functional.
Assay [4] can be described thus: Vero E6 cell cytotoxicity, dose response, cytotoxicity control for non-replicating M. tuberculosis project, secondary assay (AID 492998). The assay is classed as functional, VeroE6. The note with it: Vero C1008.
Assay [5] deals with T2, Sphingosine 1-phosphate receptor 4 (Homo sapiens, UniProt O95977).
T2 sequence (O95977 whole entry): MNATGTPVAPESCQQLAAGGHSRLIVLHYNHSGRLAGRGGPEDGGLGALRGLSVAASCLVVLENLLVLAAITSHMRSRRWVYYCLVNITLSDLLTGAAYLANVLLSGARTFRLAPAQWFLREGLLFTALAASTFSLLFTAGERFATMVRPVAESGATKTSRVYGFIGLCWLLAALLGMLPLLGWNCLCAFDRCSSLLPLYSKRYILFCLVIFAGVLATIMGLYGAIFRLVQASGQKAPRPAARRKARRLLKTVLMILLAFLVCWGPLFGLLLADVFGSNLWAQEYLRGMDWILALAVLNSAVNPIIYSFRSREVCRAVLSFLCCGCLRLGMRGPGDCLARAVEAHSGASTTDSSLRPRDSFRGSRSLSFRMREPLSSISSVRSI
Nature of the assay: Fluorescence dose response cell-based high throughput screening assay for antagonists of the Sphingosine 1-Phosphate Receptor 4 (S1P4). [Related pubchem assays: 1524 (Confirmation in triplicates.), 1510 (Primary screen.)]. The assay is classed as functional.

Assay [6] in a line: HepG2 cell cytotoxicity, dose response, cytotoxicity control for non-replicating M. tuberculosis project (AID 489018). It is filed as functional. The note with it: Mycobacterium tuberculosis.
Assay [7] can be described thus: Shn3 3'UTR reporter inhibitors, dose response, cell-based, Clone20 osteoblasts, firefly luciferase, cherry-picked (AID 624132).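 Further: firefly luciferase luminescence from reporter carrying the Shn3 3'UTR in osteoblasts.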 The assay is classed as functional.
Assay [8] addresses Sphingosine 1-phosphate receptor 1 (Homo sapiens, UniProt P21453). It is filed as functional.
The subject of assay [9] is HEK293. Kind of assay: cells. The note with it: Homo sapiens.
In another assay the test system is INS1. Kind of assay: beta cell apoptosis inhibitors, cytokine rescue, dose response, luminescence, retest (AID 449756).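 Further: cell death triggered by IL-1 beta plus TNF-alpha plus IFN-gamma mixture; protective hits raise ATP signal compared with cytokine alone wells.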 It is filed as functional, cell-based. The note with it: Rattus norvegicus.
Assay [10] concerns the target T3, Replicative DNA helicase DnaB (Mycobacterium tuberculosis, UniProt P9WMR3).
T3 sequence (P9WMR3 whole entry): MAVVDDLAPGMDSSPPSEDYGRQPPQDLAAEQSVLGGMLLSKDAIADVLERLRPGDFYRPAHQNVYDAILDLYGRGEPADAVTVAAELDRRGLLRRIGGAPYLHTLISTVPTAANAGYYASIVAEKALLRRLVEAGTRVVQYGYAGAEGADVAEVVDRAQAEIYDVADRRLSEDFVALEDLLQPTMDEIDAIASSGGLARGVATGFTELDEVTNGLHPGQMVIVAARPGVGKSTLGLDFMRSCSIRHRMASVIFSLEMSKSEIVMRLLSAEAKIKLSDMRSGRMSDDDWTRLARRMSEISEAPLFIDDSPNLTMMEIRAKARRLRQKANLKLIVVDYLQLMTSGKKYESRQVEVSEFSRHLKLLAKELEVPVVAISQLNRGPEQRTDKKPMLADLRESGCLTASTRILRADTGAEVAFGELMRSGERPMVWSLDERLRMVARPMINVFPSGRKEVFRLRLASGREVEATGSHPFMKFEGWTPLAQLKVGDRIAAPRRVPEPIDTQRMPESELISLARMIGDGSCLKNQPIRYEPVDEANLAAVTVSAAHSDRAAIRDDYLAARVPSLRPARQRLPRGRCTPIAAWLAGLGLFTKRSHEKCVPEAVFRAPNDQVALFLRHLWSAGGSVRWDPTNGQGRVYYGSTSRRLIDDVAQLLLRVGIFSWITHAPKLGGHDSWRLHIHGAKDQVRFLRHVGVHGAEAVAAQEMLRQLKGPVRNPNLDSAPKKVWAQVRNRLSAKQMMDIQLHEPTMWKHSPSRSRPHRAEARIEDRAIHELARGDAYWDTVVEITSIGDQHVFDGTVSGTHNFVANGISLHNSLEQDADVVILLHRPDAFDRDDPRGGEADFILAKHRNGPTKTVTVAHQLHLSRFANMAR
Nature of the assay: DnaB intein splicing inhibitors, dose response, biochemical, cell-free fluorescence (AID 449749). The assay is classed as functional.

A further assay can be described thus: cells. The assay is classed as functional.
Assay [11] deals with HEK293. Nature of the assay: cells. The note with it: Homo sapiens. This is another data set of the same source.
A short description of assay [12]: control 3'UTR Renilla luciferase suppression, dose response, counter-screen for Shn3 inhibitor project, cell-based, Clone20-Shn3RL, cherry-picked (AID 624133). The assay is classed as functional. (The purpose of a counterscreen is to sort out artefacts and off-target activity.)
Assay [13] is described as follows: Fluorescence-based cell-based high throughput dose response assay for inhibitors of the interaction of nucleotide-binding oligomerization domain containing 2 (NOD2) and the receptor-interacting serine-threonine kinase 2 (RIPK2). It is filed as functional. To be noted: Homo sapiens.
Another assay concerns the target Mu-type opioid receptor (Homo sapiens, UniProt P35372). It is filed as functional, cell-based.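 Further: U2OS cells with beta-arrestin recruitment to OPRM1 by beta-gal complementation.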
Assay [14] has as its target T4, Aryl hydrocarbon receptor (Homo sapiens, UniProt P35869).
T4 sequence (P35869 whole entry): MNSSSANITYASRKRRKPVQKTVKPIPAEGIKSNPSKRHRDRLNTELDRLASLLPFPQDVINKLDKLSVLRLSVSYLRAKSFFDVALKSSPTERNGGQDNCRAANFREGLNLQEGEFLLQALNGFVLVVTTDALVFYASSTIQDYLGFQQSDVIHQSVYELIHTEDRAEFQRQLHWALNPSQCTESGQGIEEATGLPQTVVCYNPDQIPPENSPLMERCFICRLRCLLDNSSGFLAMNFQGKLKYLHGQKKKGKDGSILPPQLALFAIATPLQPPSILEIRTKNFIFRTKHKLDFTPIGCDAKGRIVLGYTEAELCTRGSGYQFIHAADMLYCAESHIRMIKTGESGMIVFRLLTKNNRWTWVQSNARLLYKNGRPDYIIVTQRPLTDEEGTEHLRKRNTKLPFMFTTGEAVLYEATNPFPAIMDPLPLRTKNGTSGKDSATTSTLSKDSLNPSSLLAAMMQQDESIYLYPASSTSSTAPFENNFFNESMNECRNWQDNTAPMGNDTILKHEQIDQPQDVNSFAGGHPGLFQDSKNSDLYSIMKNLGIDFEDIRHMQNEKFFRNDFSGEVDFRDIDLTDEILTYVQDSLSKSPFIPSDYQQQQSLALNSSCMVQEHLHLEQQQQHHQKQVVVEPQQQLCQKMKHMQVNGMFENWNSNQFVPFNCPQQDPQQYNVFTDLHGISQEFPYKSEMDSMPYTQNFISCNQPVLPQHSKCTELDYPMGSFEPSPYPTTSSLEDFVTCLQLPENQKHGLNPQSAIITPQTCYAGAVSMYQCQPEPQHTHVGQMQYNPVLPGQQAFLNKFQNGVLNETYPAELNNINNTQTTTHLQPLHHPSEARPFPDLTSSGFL
Nature of the assay: Luminescence-based cell-based high throughput dose response assay for activators of the Aryl Hydrocarbon Receptor (AHR). [Related pubchem assays: 2796 (Primary screen (AHR activators in singlicate)), 2845 (Confirmation screen (AHR activators in triplicate)), 434939 (Counterscreen (PXR activators in triplicate)), 2804 (Summary (AHR activators))]. The assay is classed as ADME.

Assay [15] in a line: Luminescence Cell-Based Dose Response HTS to Identify Activators of Luciferase Translation or Activity in H4 […] Cells. [Related pubchem assays: 1829 (Project Summary), 1814 (Primary HTS)]. The assay is classed as functional.
Assay [16] concerns the target T5, Sentrin-specific protease 8 (Homo sapiens, UniProt Q96LD8).
T5 sequence (Q96LD8 whole entry): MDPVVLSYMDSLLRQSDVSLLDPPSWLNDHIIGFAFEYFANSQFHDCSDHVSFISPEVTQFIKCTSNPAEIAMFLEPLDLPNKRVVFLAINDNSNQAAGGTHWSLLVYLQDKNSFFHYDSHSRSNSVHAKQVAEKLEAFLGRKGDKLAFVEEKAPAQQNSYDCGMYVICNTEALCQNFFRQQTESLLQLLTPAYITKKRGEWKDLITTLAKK
The assay is classed as functional.

The test system of another assay is H4. Kind of assay: Luminescence Cell-Based Dose Response HTS to Identify Activators of 5'UTR Stem-Loop Driven Prion Protein mRNA Translation in H4 Neuroglioblastoma Cells. [Related pubchem assays: 1829 (Project Summary), 1814 (Primary HTS)]. The assay is classed as functional. To be noted: Homo sapiens.
Assay [17] is described as follows: Luminescence Cell-Based Dose Confirmation HTS to Identify Activators of 5'UTR Stem-Loop Driven Alpha-Synuclein mRNA Translation in H4 Neuroglioblastoma Cells. [Related pubchem assays: 1829 (Project Summary), 1814 (Primary HTS)]. The assay is classed as functional.
Assay [18] addresses T5, Sentrin-specific protease 8. It is filed as functional. This is another data set of the same source.
The nature of assay [19]: Counterscreen for inhibitors of Trypanosoma brucei methionyl tRNA synthetase (MetRS): Luminescence-based cell-based high throughput dose response assay to identify compounds that are cytotoxic to Jurkat human T lymphocyte cells. It is filed as functional.

Structures can show the parent of a compound that is named as a salt. The source made the active and inactive calls.

Sequence of Sphingosine 1-phosphate receptor 1 (P21453 whole entry): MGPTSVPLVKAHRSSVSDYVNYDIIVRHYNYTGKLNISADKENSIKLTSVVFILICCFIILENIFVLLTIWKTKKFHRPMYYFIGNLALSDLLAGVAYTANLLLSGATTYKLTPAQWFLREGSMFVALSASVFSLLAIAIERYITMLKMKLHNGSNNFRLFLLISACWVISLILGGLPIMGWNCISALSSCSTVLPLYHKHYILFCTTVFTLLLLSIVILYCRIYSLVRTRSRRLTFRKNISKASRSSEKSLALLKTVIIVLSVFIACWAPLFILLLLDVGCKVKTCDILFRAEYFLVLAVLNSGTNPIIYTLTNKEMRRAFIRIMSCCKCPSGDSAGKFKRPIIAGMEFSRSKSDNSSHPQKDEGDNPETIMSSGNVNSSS
Sequence of Beta Lactamase (Q932Y6 whole entry): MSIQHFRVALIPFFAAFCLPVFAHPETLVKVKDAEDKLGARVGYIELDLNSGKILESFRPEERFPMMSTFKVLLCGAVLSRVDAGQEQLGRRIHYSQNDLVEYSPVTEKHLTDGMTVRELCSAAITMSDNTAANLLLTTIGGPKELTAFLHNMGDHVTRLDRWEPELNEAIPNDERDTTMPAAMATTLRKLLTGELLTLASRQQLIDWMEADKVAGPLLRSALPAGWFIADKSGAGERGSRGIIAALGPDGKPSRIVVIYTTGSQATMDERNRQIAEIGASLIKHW
Sequence of Arf-GAP with SH3 domain, ANK repeat and PH domain-containing protein 1 (Q9ULH1 whole entry, the tested form may be a part): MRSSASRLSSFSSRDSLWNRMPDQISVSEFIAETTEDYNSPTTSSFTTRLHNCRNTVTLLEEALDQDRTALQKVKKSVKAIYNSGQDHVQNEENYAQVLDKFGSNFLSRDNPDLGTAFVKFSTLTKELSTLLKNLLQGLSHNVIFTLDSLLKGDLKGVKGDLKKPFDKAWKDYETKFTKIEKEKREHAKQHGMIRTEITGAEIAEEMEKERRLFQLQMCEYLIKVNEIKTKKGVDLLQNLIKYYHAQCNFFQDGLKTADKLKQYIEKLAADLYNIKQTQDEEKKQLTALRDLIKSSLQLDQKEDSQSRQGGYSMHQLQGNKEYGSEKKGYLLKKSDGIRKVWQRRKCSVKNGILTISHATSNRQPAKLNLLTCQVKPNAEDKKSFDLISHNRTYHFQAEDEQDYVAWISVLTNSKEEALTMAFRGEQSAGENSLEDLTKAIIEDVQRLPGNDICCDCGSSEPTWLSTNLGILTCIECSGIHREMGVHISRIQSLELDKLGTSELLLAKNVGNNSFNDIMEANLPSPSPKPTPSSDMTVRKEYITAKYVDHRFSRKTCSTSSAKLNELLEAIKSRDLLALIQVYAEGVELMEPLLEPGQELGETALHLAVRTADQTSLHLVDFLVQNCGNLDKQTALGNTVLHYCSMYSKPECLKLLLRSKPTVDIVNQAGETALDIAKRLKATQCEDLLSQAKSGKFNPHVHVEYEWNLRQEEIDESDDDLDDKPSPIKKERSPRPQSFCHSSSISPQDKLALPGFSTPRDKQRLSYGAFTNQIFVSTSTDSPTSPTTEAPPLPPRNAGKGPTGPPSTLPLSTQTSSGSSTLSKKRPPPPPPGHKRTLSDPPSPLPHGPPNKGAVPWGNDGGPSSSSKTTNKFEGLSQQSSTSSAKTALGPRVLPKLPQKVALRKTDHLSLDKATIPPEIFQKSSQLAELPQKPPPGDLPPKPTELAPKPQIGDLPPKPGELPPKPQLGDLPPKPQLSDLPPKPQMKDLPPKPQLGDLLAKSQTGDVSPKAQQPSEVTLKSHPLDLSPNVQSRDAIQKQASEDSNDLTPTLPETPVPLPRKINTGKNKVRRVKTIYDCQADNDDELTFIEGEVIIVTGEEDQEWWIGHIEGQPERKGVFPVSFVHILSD
Sequence of Mu-type opioid receptor (P35372 whole entry): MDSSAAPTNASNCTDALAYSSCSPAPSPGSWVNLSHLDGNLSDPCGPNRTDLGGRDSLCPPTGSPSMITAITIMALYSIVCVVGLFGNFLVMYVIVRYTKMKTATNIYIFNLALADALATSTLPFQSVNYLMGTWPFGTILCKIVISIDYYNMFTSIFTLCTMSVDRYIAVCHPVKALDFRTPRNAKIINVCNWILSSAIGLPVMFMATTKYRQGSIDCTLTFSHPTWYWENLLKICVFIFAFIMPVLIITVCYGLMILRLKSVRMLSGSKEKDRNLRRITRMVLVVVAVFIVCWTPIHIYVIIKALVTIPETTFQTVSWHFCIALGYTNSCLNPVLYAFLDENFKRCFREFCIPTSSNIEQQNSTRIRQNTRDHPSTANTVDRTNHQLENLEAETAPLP

Regarding `c1ccc(-c2cc(-c3nnc4sc(-c5ccccn5)nn34)[nH]n2)cc1`, the IC50 in assay [1] is 165 µM (inactive); with H9c2, > 79 µM (inactive).

As to `CC1=NNC(=O)/C1=C\c1cn(-c2ccccc2)nc1-c1ccccc1`, the concentration for a half-maximal effect (EC50) on Protein RecA is 0.978 µM (active); with HEK293 [9], > 59.7 µM (inactive); in the assay with HEK293 [11] it was > 59.7 µM (inactive). Besides, the AC50 in assay [2] is 8.9 µM (active); in assay [7], 8.42 µM (active); with INS1, 7.76 µM (active); in assay [10] it was 1.92 µM (active); in assay [12], 9.3 µM (active). Also, the IC50 on Beta Lactamase was 49.8 µM (inactive); in assay [5], 2 µM (active); in assay [8], 6.83 µM (active); in “cells” it was 20.6 µM (active); in assay [13], 4.43 µM (active). The CC50 in [3] was 6.16 µM (active); in [4], 10.1 µM (active); in assay [6], 13 µM (active).

On to `CC(C)[C@@]1(NC(=O)[C@@H]2C[C@@H]3c4cccc5[nH]cc(c45)C[C@H]3N(C)C2)O[C@@]2(O)[C@@H]3CCCN3C(=O)[C@H](Cc3ccccc3)N2C1=O` [DIHYDROERGOCRISTINE MESYLATE], for which the EC50 on Mu-type opioid receptor is 92.5 µM (inactive).

`O=C1c2ccccc2-c2nc3ccccc3nc21`: the EC50 in assay [14] was 1.22 µM (active); in [15] it was 42.2 µM (active); in the assay with H4 it was > 120 µM (not active); in [17], 0.307 µM (active). For the same molecule, the IC50 in assay [16] was 5.17 µM (active); in assay [18], 8.84 µM (active).

As to `N#Cc1ccccc1CSc1nc2cc(Br)c[nH]c-2n1`, in assay [19], the IC50 is 83.3 µM (inactive).
